Several values for one entry are separate records, joined by “and”; a condition that tells them apart may be missing. Equal values may be shown once. Entries after “also recorded” stand apart in the source; their conditions may differ.
Experiments:
[1] = biological target: T1, N1768D NaV1.6 persistent currents (Homo sapiens, UniProt Q9UQD0, N1768D); experiment: Persistent current inhibition; assay type: cell-based
T1 construct: expression vector containing the full-length cDNA coding for specific human and mouse sodium channel α-subunit; expressed in transfected cells; host or cells: Expi293F (transient, tetracycline-induced, pcDNA4/TO)
From the text: Elevated persistent and or resurgent currents are believed to underlie or contribute to the pathology of many sodium channel related pathologies ([Mason et al., 2019]; [Pan and Cummins, 2020]; [Potet et al., 2020]; [Tidball et al., 2020]; [Zaman et al., 2019]). In most conditions, normal NaV1.6 channels inactivate rapidly and nearly completely after opening.
(§1) Inorm(CPD)=(ICPD−Icontrol)/(ITTX−Icontrol).

[2] = biological target: T2, mNaV1.6 (Mus musculus, UniProt Q9WTU3); experiment: Qube 384 automated patch-clamp, inactivated-state inhibition; assay type: cell-based
T2 construct: expression vector containing the full-length cDNA coding for specific human and mouse sodium channel α-subunit; expressed in transfected cells

[3] = biological target: T3, hNaV1.6 N984K (Homo sapiens, UniProt Q9UQD0, N984K); experiment: Automated patch-clamp, patient-identified variant in Expi293F cells; assay type: cell-based; parameters: h1.6-N984K 145756, Mean: scale not given here
T3 construct: expression vector containing the full-length cDNA coding for specific human and mouse sodium channel α-subunit; expressed in transfected cells; host or cells: Expi293F (transient, tetracycline-induced, pcDNA4/TO)
Protocol: (§2) For studies of mutant channels, cDNA plasmids in pcDNA4/TO Mammalian Expression Vector were transiently transfected into Expi293F cells stably expressing human FHF2b and human SCN1B subunit (polyclonal) background using ExpiFectamine 293 Transfection Kits (Gibco,Thermo Fisher Scientific CAT #: A14524). Induction was achieved using Tetracycline (Sigma Aldrich). Transfected cells were used in automated patch-clamp experiments 24 hours postinduction.
as §1

[4] = biological target: T4, hNaV1.6 N1466K (Homo sapiens, UniProt Q9UQD0, N1466K); experiment: as above; assay type: cell-based; parameters: h1.6 -N1466K 145756, Mean: scale not given here
T4 construct: expression vector containing the full-length cDNA coding for specific human and mouse sodium channel α-subunit; expressed in transfected cells; host or cells: Expi293F (transient, tetracycline-induced, pcDNA4/TO)
Protocol: as §2, §1

[5] = test system: fast spiking interneurons; experiment: Current-clamp recording in brain slices, action-potential firing; assay type: cell-based, mouse; settings: for Fast spiking interneurons APs/1s: 0.25 μM, individual neurons; for Cumulative number of action potentials fired by each cell on increasing current injections: 250 nM, fast spiking interneurons
Protocol: Parasagittal cortical brain slices were prepared from> P21 mice using standard procedures (adapted from Tai et al., PNAS 2014). Briefly, the mouse was deeply anaesthetized with isoflurane and decapitated. The brain was removed and placed into chilled artificial cerebrospinal fluid (aCSF) solution containing (in mM): 125 NaCl, 25 NaHCO3, 2.5 KCl, 1.25 NaH2PO4, 2 CaCl2, 2 MgCl2, 10 d-glucose, pH 7.3, osmolarity adjusted to ~306 mOsm using sucrose. All solutions were saturated with 95% O2 and 5% CO2 constantly perfused with 95% O2/5% CO2. Slices with a thickness of 400 µm were prepared using a vibratome (Ted Pella, Inc). Following sectioning, the slices were placed in a holding chamber and incubated in a water bath at 34 °C for 15 min. The brain slices were removed from the water bath and held at room temperature for 60 min prior to recording.
All experiments involving rodent subjects were performed in accordance with the guidelines of the Canadian Council on Animal Care (CCAC). Following a 60-min incubation at room temperature, a brain slice was selected and placed on the stage of an upright microscope (SliceScope Pro 2000, Scientifica). The slice was constantly perfused with room temperature aCSF, containing 0.1% DMSO as a vehicle control, and oxygenated with 95% O2/5% CO2.The slice was visualized using brightfield microscopy, and a healthy neuron was selected from neocortical layer 5. […] Stimulation was applied in current-clamp mode, and consisted of a series of 1000ms square pulses, beginning at –20 pA and increasing by +20 pA increments (3000ms between pulses).
The slice was incubated in circulating compound for 10 min before repeating the series of square pulse stimulations. Working stock solutions were prepared in DMSO at a concentration of 20 mM.
All data analysis was done offline using ClampFit 10.7 (Molecular Devices). Data are presented as a mean ± SEM. For each sweep, the number of evoked APs was counted, and plotted as a function of current injection (beginning with –20 pA). […] Statistical significance was assessed using paired, two-way, student’s t-test applied at each current injection level with significance considered p < 0.05.

T2 sequence (Q9WTU3 whole entry): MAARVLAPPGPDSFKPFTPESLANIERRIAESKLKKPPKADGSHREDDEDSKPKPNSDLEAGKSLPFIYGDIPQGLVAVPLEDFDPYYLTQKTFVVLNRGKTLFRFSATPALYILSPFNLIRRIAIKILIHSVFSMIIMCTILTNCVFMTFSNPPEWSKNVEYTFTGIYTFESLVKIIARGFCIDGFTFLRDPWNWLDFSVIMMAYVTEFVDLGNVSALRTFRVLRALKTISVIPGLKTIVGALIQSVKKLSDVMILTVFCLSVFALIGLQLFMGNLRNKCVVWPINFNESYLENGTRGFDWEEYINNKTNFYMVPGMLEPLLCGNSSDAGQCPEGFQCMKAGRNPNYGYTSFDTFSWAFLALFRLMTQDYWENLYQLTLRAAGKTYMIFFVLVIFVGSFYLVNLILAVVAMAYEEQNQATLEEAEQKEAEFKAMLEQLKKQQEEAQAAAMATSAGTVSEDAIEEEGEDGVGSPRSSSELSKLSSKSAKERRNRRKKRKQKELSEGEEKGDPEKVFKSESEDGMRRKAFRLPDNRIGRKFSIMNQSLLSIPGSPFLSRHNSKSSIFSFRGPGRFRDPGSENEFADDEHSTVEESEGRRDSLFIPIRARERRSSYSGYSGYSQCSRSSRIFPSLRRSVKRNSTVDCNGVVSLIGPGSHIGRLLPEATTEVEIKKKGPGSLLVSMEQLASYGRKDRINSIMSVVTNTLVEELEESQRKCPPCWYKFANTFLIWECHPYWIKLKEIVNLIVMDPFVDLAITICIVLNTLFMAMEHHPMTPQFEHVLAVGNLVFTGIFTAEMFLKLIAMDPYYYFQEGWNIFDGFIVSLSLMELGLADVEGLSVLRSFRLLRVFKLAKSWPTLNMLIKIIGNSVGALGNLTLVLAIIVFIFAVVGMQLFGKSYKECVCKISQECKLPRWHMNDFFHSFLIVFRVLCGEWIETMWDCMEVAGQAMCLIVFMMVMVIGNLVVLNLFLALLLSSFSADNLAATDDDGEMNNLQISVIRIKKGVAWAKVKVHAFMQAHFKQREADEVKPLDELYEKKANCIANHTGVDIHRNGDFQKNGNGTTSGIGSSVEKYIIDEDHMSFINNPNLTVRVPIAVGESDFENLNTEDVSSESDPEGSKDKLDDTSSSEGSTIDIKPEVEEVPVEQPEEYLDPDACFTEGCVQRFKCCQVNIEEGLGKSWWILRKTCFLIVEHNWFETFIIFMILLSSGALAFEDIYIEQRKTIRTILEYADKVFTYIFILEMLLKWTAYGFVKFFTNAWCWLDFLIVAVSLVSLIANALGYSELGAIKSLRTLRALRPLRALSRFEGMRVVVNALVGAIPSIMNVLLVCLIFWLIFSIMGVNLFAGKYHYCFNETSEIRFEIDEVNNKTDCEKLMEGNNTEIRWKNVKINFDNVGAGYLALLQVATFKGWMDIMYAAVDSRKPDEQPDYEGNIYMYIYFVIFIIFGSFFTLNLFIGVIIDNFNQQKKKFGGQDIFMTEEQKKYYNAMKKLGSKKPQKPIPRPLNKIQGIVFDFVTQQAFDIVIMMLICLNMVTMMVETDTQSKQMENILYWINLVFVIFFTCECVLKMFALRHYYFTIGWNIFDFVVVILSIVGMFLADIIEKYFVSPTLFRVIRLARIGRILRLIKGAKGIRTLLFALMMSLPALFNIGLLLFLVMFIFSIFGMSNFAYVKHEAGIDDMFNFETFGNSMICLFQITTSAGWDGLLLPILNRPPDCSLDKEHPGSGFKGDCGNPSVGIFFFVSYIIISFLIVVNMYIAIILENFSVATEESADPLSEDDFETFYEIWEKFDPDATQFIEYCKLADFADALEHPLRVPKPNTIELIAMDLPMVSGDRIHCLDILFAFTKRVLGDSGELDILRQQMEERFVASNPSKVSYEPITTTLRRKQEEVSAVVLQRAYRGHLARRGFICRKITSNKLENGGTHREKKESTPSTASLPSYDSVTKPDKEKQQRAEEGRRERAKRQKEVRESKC
T2 sequence (Q92913 1-192 isoform Q92913-2 partner): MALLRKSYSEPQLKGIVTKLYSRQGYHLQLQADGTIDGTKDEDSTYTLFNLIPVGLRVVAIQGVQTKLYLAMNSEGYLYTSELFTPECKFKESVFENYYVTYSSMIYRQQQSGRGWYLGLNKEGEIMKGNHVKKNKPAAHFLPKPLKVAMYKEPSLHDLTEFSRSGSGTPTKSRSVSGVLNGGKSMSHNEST
T3 sequence (Q9UQD0 whole entry N984K): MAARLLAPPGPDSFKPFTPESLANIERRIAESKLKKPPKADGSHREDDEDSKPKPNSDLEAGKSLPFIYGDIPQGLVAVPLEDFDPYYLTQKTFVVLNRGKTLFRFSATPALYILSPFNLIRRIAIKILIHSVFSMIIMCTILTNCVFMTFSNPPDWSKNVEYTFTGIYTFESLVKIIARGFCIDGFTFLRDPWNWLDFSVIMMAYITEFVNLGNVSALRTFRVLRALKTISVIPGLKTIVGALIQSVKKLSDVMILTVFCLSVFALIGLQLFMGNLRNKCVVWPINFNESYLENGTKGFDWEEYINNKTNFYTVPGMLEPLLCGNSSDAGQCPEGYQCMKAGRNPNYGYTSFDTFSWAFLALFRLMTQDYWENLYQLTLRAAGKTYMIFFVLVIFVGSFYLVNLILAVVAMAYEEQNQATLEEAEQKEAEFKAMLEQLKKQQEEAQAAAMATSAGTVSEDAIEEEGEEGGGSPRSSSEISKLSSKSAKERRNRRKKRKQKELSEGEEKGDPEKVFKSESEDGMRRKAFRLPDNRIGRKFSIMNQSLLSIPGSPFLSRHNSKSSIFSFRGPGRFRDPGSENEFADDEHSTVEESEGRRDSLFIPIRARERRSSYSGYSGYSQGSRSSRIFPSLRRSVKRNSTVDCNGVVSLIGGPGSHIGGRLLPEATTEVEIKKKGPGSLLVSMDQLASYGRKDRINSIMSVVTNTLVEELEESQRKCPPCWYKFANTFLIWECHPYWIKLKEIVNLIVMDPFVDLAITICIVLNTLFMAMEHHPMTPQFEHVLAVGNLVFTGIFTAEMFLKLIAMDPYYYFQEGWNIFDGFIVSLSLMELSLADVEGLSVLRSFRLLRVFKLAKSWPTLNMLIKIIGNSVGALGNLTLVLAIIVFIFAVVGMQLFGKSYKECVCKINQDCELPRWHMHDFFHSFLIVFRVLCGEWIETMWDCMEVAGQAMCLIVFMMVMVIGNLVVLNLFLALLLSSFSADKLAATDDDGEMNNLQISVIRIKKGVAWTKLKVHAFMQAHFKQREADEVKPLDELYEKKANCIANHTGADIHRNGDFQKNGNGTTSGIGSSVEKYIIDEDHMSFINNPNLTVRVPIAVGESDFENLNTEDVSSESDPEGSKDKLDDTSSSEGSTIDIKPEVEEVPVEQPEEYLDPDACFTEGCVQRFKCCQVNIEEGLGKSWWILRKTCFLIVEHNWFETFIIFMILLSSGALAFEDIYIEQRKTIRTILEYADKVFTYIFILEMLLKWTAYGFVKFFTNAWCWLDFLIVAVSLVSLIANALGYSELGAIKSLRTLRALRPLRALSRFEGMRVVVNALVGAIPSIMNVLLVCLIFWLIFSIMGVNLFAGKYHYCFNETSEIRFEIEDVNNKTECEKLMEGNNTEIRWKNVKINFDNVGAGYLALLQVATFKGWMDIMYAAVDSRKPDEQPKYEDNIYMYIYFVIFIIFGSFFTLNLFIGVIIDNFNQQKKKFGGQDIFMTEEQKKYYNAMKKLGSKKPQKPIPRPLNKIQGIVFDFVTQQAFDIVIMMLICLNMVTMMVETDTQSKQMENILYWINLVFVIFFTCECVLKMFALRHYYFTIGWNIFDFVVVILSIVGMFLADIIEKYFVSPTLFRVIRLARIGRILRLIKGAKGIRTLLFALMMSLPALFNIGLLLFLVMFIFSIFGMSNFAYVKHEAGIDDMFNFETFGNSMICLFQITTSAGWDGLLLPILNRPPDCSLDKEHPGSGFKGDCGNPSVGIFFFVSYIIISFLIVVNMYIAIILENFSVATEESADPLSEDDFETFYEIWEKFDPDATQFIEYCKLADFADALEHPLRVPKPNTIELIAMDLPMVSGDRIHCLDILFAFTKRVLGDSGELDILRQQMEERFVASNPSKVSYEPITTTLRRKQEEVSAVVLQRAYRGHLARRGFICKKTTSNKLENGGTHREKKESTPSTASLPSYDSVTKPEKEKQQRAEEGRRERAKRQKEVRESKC
T4 sequence (Q9UQD0 whole entry N1466K): as the sequence (Q9UQD0 whole entry N984K) above, with K984N, N1466K counted along it
T1 sequence (Q9UQD0 whole entry N1768D): as the sequence (Q9UQD0 whole entry N984K) above, with K984N, N1768D counted along it
T1 sequence (Q92913 1-192 isoform Q92913-2 partner): as the sequence (Q92913 1-192 isoform Q92913-2 partner) above

## Cc1cc(S(=O)(=O)Nc2cscn2)c(F)cc1N(C)[C@H]1CCN(Cc2ccccc2)C1 [NBI-921352]
[1]; -5 Log M
  N1768D current in (352)/(Vehicle), Persistent, mean: 0.93
[1]; -5.47712 Log M
  N1768D current in (352)/(Vehicle), Persistent, mean: 0.92
[1]; -5.95424 Log M
  N1768D current in (352)/(Vehicle), Persistent, mean: 0.91
[1]; -6.43136 Log M
  N1768D current in (352)/(Vehicle), Persistent, mean: 0.87
[1]; -6.90848 Log M
  N1768D current in (352)/(Vehicle), Persistent, mean: 0.63
[1]; -7.38561 Log M
  N1768D current in (352)/(Vehicle), Persistent, mean: 0.44
[1]; -7.86274 Log M
  N1768D current in (352)/(Vehicle), Persistent, mean: 0.21
[1]; -8.33989 Log M
  N1768D current in (352)/(Vehicle), Persistent, mean: 0
[1]; non-inactivating current 10ms after initiation of test pulse
  IC50: 59 nM
[2]; -5 Log M
  mNaV1.6 current (352)/(Vehicle): 0.92
[2]; -5.47716 Log M
  mNaV1.6 current (352)/(Vehicle): 0.9
[2]; -5.95429 Log M
  mNaV1.6 current (352)/(Vehicle): 0.84
[2]; -6.91009 Log M
  mNaV1.6 current (352)/(Vehicle): 0.63
[2]; -7.38722 Log M
  mNaV1.6 current (352)/(Vehicle): 0.48
[2]; -7.85387 Log M
  mNaV1.6 current (352)/(Vehicle): 0.27
[2]; -8.30103 Log M
  mNaV1.6 current (352)/(Vehicle): 0.12
[2]; Vh -45 mV
  IC50: 58 nM
[3]
  IC50: 32 nM
[3]; -5 LogM
  h1.6-N984K 145756, Mean: 0.94
[3]; -5.47716 LogM
  h1.6-N984K 145756, Mean: 0.92
[3]; -5.95429 LogM
  h1.6-N984K 145756, Mean: 0.89
[3]; -6.4318 LogM
  h1.6-N984K 145756, Mean: 0.81
[3]; -6.91009 LogM
  h1.6-N984K 145756, Mean: 0.66
[3]; -7.38722 LogM
  h1.6-N984K 145756, Mean: 0.56
[3]; -7.85387 LogM
  h1.6-N984K 145756, Mean: 0.33
[3]; -8.33 LogM
  h1.6-N984K 145756, Mean: 0.09
[4]
  IC50: 39 nM
[4]; -5 LogM
  h1.6 -N1466K 145756, Mean: 0.92
[4]; -5.47716 LogM
  h1.6 -N1466K 145756, Mean: 0.94
[4]; -5.95429 LogM
  h1.6 -N1466K 145756, Mean: 0.81
[4]; -6.4318 LogM
  h1.6 -N1466K 145756, Mean: 0.73
[4]; -6.91009 LogM
  h1.6 -N1466K 145756, Mean: 0.69
[4]; -7.38722 LogM
  h1.6 -N1466K 145756, Mean: 0.47
[4]; -7.85387 LogM
  h1.6 -N1466K 145756, Mean: 0.32
[4]; -8.33 LogM
  h1.6 -N1466K 145756, Mean: 0.15
[5]; 0.25 µM NBI-921352
  effect on action-potential firing, fast-spiking interneurons: trend toward slightly increased firing frequency; also recorded: no significant effect
[5]; 220 pA current injected
  Fast spiking interneurons APs/1s: 51 APs/1s and 58 APs/1s and 67 APs/1s
[5]; current injected 0 pA
  Fast spiking interneurons APs/1s: 0 APs/1s
[5]; current injected 20 pA
  Fast spiking interneurons APs/1s: 0 APs/1s
[5]; current injected 40 pA
  Fast spiking interneurons APs/1s: 0 APs/1s
[5]; current injected 60 pA, row
  Fast spiking interneurons APs/1s: 0 APs/1s (2×) and 17 APs/1s
[5]; current injected 80 pA, row
  Fast spiking interneurons APs/1s: 0 APs/1s and 1 APs/1s and 25 APs/1s
[5]; current injected 100 pA, row
  Fast spiking interneurons APs/1s: 20 APs/1s and 25 APs/1s and 33 APs/1s
[5]; current injected 120 pA, row
  Fast spiking interneurons APs/1s: 28 APs/1s and 33 APs/1s and 39 APs/1s
[5]; current injected 140 pA, row
  Fast spiking interneurons APs/1s: 34 APs/1s and 40 APs/1s and 45 APs/1s
[5]; current injected 160 pA, row
  Fast spiking interneurons APs/1s: 38 APs/1s and 46 APs/1s and 52 APs/1s
[5]; current injected 180 pA, row
  Fast spiking interneurons APs/1s: 43 APs/1s and 50 APs/1s and 57 APs/1s
[5]; current injected 200 pA, row
  Fast spiking interneurons APs/1s: 47 APs/1s and 55 APs/1s and 62 APs/1s
[5]; current injected 220 pA, row
  Fast spiking interneurons APs/1s: 51 APs/1s and 58 APs/1s and 67 APs/1s
[5]; current injected 240 pA, row
  Fast spiking interneurons APs/1s: 55 APs/1s and 62 APs/1s and 73 APs/1s
[5]; current injected 260 pA, row
  Fast spiking interneurons APs/1s: 58 APs/1s and 65 APs/1s and 77 APs/1s
[5]; current injected 280 pA, row
  Fast spiking interneurons APs/1s: 61 APs/1s and 70 APs/1s and 82 APs/1s
[5]; current injected 300 pA, row
  Fast spiking interneurons APs/1s: 65 APs/1s and 73 APs/1s and 86 APs/1s
[5]; current injected 320 pA, row
  Fast spiking interneurons APs/1s: 68 APs/1s and 76 APs/1s and 89 APs/1s
[5]; current injected 340 pA, row
  Fast spiking interneurons APs/1s: 70 APs/1s and 80 APs/1s and 96 APs/1s
[5]; current injected 360 pA, row
  Fast spiking interneurons APs/1s: 73 APs/1s and 83 APs/1s and 100 APs/1s
[5]; current injected 380 pA, row
  Fast spiking interneurons APs/1s: 74 APs/1s and 83 APs/1s and 100 APs/1s
[5]; current injected 400 pA, row
  Fast spiking interneurons APs/1s: 75 APs/1s and 86 APs/1s and 103 APs/1s
[5]; current injected 420 pA, row
  Fast spiking interneurons APs/1s: 77 APs/1s and 87 APs/1s and 101 APs/1s
[5]; current injected 440 pA, row
  Fast spiking interneurons APs/1s: 77 APs/1s and 88 APs/1s and 103 APs/1s
[5]; current injected -20 pA
  Fast spiking interneurons APs/1s: 0 APs/1s
[5]; up to current injected 0 pA
  Cumulative number of action potentials fired by each cell on increasing current injections: 0
[5]; up to current injected 20 pA
  Cumulative number of action potentials fired by each cell on increasing current injections: 0
[5]; up to current injected 40 pA
  Cumulative number of action potentials fired by each cell on increasing current injections: 0
[5]; up to current injected 140 pA, listed as NBI-921252
  Cumulative number of action potentials fired by each cell on increasing current injections: 82 and 99 and 159
[5]; up to current injected 160 pA, listed as NBI-921252
  Cumulative number of action potentials fired by each cell on increasing current injections: 120 and 145 and 211
[5]; up to current injected 180 pA, listed as NBI-921252
  Cumulative number of action potentials fired by each cell on increasing current injections: 163 and 195 and 268
[5]; up to current injected 200 pA, listed as NBI-921252
  Cumulative number of action potentials fired by each cell on increasing current injections: 210 and 250 and 330
[5]; up to current injected 220 pA, listed as NBI-921252
  Cumulative number of action potentials fired by each cell on increasing current injections: 261 and 308 and 397
[5]; up to current injected 240 pA, listed as NBI-921252
  Cumulative number of action potentials fired by each cell on increasing current injections: 316 and 370 and 470
[5]; up to current injected 260 pA, listed as NBI-921252
  Cumulative number of action potentials fired by each cell on increasing current injections: 374 and 435 and 547
[5]; up to current injected 280 pA, listed as NBI-921252
  Cumulative number of action potentials fired by each cell on increasing current injections: 435 and 505 and 629
[5]; up to current injected 300 pA, listed as NBI-921252
  Cumulative number of action potentials fired by each cell on increasing current injections: 500 and 578 and 715
[5]; up to current injected 320 pA, listed as NBI-921252
  Cumulative number of action potentials fired by each cell on increasing current injections: 568 and 654 and 804
[5]; up to current injected 340 pA, listed as NBI-921252
  Cumulative number of action potentials fired by each cell on increasing current injections: 638 and 734 and 900
[5]; up to current injected 360 pA, listed as NBI-921252
  Cumulative number of action potentials fired by each cell on increasing current injections: 711 and 817 and 1000
[5]; up to current injected 380 pA, listed as NBI-921252
  Cumulative number of action potentials fired by each cell on increasing current injections: 785 and 900 and 1100
[5]; up to current injected 400 pA, listed as NBI-921252
  Cumulative number of action potentials fired by each cell on increasing current injections: 860 and 986 and 1203
[5]; up to current injected 420 pA, listed as NBI-921252
  Cumulative number of action potentials fired by each cell on increasing current injections: 937 and 1073 and 1304
[5]; up to current injected 440 pA, listed as NBI-921252
  Cumulative number of action potentials fired by each cell on increasing current injections: 1014 and 1161 and 1407
[5]; up to current injected -20 pA
  Cumulative number of action potentials fired by each cell on increasing current injections: 0

Source: publication PMC8903829 (eLife, 2022)
